From patent publication US9675624B2, “Combination of levocabastine and fluticasone furoate for the treatment of inflammatory and/or allergic conditions” (Glaxo Group Limited, priority 2012, dated 2017)

Assay: Competitive ripening experiments on levocabastine free base forms
Format: physicochemical
Source text: It has been observed that the levocabastine HCl salt converts during the preparation of formulations of the invention (e.g. as described in Examples 1 and 2) to levocabastine free base. Levocabastine free base Forms 1 and 2 were observed during the form screen of the HCl salt and during pH solubility studies.

relative stability of polymorphic forms of the free base: most stable form
SMILES: C[C@@H]1CN(C2CCC(C#N)(c3ccc(F)cc3)CC2)CC[C@]1(C(=O)O)c1ccccc1 (stereo partly drawn) [levocabastine Form 1, (3S,4R)-1-[4-cyano-4-(4-fluorophenyl)cyclohexyl]-3-methyl-4-phenylpiperidine-4-carboxylic acid]
